In brackets after ≈: the same amount, converted by molar mass.
Conditions: buffer; pH 7.4; 200.0 µM

Row | Compound | solubility kinetic [µg/mL]
1 | O=C(NCC1CCCO1)c1ccccc1NS(=O)(=O)c1cc([N+](=O)[O-])ccc1Cl (stereo unspecified) | > 66
2 | O=C(Nc1ccc(Oc2cccc(C(F)(F)F)c2)nc1)c1cccs1 | < 0.4
3 | CCN(CC)CCCNc1oc(/C=C/c2ccccc2)nc1C#N | > 48.7
4 | O=C(c1ccc(Br)cc1)N1CCCc2ccccc21 | 14 (≈ 44.3 µM)
5 | Cc1ccc2nc(C)cc(C(=O)Nc3nccs3)c2c1 | 19.3 (≈ 68.1 µM)
6 | COc1ccc(NC(=O)CN(c2c(C)cccc2C)S(C)(=O)=O)cc1 | 48.1 (≈ 133 µM)
7 | CC(C)CCn1c(=O)[nH]c2ccccc21 | > 30.6
8 | Cn1c(SCc2cccc(C#N)c2)nc2ccccc2c1=O | 0.4 (≈ 1.3 µM)
9 | COc1ccc(Oc2ccc(C(F)(F)F)cc2NC(=O)c2ccc(F)cc2)cc1 | < 0.9
10 | CS(=O)(=O)N(CC(=O)N1CCCC1)c1ccccc1Br | > 54.2
11 | COc1cc(CNC(=O)c2cc3ccccc3oc2=O)cc(OC)c1OC | 4.6 (≈ 12.5 µM)
12 | Nc1nc(NCC(=O)O)nc(NCc2ccccc2)c1[N+](=O)[O-] | > 47.7
13 | O=C(Nc1cccc(Cl)c1N1CCOCC1)c1ccco1 | 5.7 (≈ 18.6 µM)
14 | COc1cc(NC(=O)c2cccc(S(=O)(=O)N3CCCCC3)c2)cc(OC)c1OC | 7.2 (≈ 16.6 µM)
15 | Nc1nc(-c2cc3ccccc3o2)cs1 | 3.3 (≈ 15.3 µM)
16 | COC(=O)c1cn(C(=O)c2ccc(OC)c(OC)c2)c2ccccc12 | 1.2 (≈ 3.54 µM)
17 | COc1ccccc1C1CCN(Cc2ccc(Cl)c(Cl)c2)CC1 | < 0.8
18 | COc1ccc(N(C)C(=O)Nc2ccc3nsnc3c2)cc1 | 27.5 (≈ 87.5 µM)
19 | CC1=[N+]([O-])C(C)(C)N(O)C1(C)C | > 25.8
20 | S=C1NCN(CCc2ccccc2)CN1 | > 33.2
21 | CC1CCCCC1NC(=O)C1CC(=O)N(Cc2ccccc2)C1 (stereo unspecified) | > 47.2

Row | Compound | solubility kinetic [µg/mL]
22 | CC(=O)Nc1ccc(NC(=O)CSc2ccc([N+](=O)[O-])cn2)cc1 | 3 (≈ 8.66 µM)
23 | Cn1ncc(Cl)c1C(=O)Nc1ccc(CN2CCCCC2)cc1 | > 49.9
24 | Cc1ccc(C(OCC(O)CN2CCCCC2)c2ccccc2)cc1 (stereo unspecified) | 40.2 (≈ 118 µM)
25 | CN(C)C(=O)c1c(NC(=O)c2ccccc2)sc2c1CCC2 | 42.9 (≈ 136 µM)
26 | Cc1onc(-c2c(Cl)cccc2Cl)c1C(=O)Nc1nccs1 | 4.7 (≈ 13.3 µM)
27 | CCOC(=O)c1sc(=NC(=O)COc2ccccc2)n(C)c1C | 1.4 (≈ 4.19 µM)
28 | CCS(=O)(=O)N1CCC(C(=O)Oc2ccc(Cl)cc2)CC1 | 9.9 (≈ 29.8 µM)
29 | O=C(c1cc2cc(Cl)ccc2o1)N1CCCC1 | 29.6 (≈ 119 µM)
30 | O=C(Nc1ccccc1)Nc1ccno1 | > 30.5
31 | C[C@H](NC(=O)c1ccco1)C(=O)N1CCCC1 | > 35.4
32 | Cc1ccc(NC2SC(=O)N(Cc3cccc(C(=O)O)c3)C2=O)c(C)c1 (stereo unspecified) | 53.1 (≈ 143 µM)
33 | CC(NC(=O)c1cccc(F)c1)C1CC2CCC1C2 (stereo unspecified) | 19.9 (≈ 76.1 µM)
34 | CC1CN=C(N(C(=O)Nc2ccccc2)C(C)c2ccccc2)S1 (stereo unspecified) | 27 (≈ 79.5 µM)
35 | Cc1ccc2nc(-c3ccncc3)[nH]c2c1 | 28.1 (≈ 134 µM)
36 | O=C(NCC(c1ccco1)N1CCCCC1)c1ccc([N+](=O)[O-])s1 (stereo unspecified) | > 52.4
37 | Cc1ccc(C2CC3CCC(C2)N3Cc2ccccc2F)cc1 (stereo unspecified) | 26.8 (≈ 86.6 µM)
38 | Cc1cc2ccccn2c1C(=O)c1cccc(F)c1 | 4.9 (≈ 19.3 µM)
39 | O=C(Nc1ccc(Cl)cc1)C1C2CCCCC21 (stereo unspecified) | < 0.5
40 | COC(=O)CCCN=C1SCCN1Cc1ccccc1 | > 43.9
41 | CNS(=O)(=O)c1cc(Nc2ncnc3sccc23)ccc1C | 2.5 (≈ 7.48 µM)
42 | CC(=O)N1CC(C(=O)Nc2ccc3c(c2)OCO3)Oc2ccccc21 (stereo unspecified) | > 51.1

Row | Compound | solubility kinetic [µg/mL]
43 | Clc1cccc(Cl)c1-c1noc(CN2CCOCC2)n1 | 31.8 (≈ 101 µM)
44 | S=C(NCc1ccncc1)Nc1ccc(Br)cc1 | > 48.3
45 | COc1cc(C)ccc1OCC(=O)OCC(=O)NCC1CCCCC1 | > 52.4
46 | COc1ccc(C(=O)Nc2cccc(S(=O)(=O)N3CCCC3)c2)cc1S(=O)(=O)N1CCOCC1 | 5.3 (≈ 10.4 µM)
47 | CCCCn1c(SCC(N)=O)nc2sc3c(c2c1=O)CCC3 | 1.9 (≈ 5.63 µM)
48 | COc1cc(NC(=O)CCCN2C(=O)NC(C)(C)C2=O)cc(OC)c1 | 49.6 (≈ 142 µM)
49 | Cc1cc(-c2ccccc2)c2c(n1)sc1c(O)cc(=O)[nH]c12 | > 46.3
50 | CC(=O)Nc1ccc(S(=O)(=O)Nc2nccc(C)n2)cc1 | > 46
51 | CC1CCC(N(C)C2CCN(C)CC2)CC1 (stereo unspecified) | 22.4 (≈ 99.8 µM)
52 | Cn1c(=O)oc2cc(S(=O)(=O)NCc3cccnc3)ccc21 | 30.5 (≈ 95.5 µM)
53 | O=S(=O)(NCC1CCCO1)c1ccc(Cl)cc1 (stereo unspecified) | 25.5 (≈ 92.5 µM)
54 | CCOc1ncccc1C(=O)N1CCN(C(=O)c2ccccc2)CC1 | > 50.9
55 | Cc1cccc(-c2nnc(SCC(=O)Nc3cc(C)on3)n2C)c1 | > 51.5
56 | Cn1c(=O)c2ccccc2n(CC(=O)Nc2ccc3c(c2)OCCO3)c1=O | 4.6 (≈ 12.5 µM)
57 | COC(=O)c1ccc(CNC(=O)COC(=O)/C=C/c2ccc(O)c(OC)c2)cc1 | 13.4 (≈ 33.6 µM)
58 | COC(=O)Cn1cc(C(=O)C(C)(C)C)c2ccccc21 | 37.1 (≈ 136 µM)
59 | COC(=O)c1ccc(NC(=O)C2CC3CCC2C3)cc1 (stereo unspecified) | 8.1 (≈ 29.6 µM)
60 | CC(CO)NCC12CC3CC(CC(C3)C1)C2.Cl (stereo unspecified) | > 39
61 | Nc1nc(COc2ccccc2C=O)nc(Nc2ccccc2)n1 | 32.5 (≈ 101 µM)

Source: PubChem BioAssay AID1996
